# Test: Pharmacokinetics in the HT29 tumor model, non-transfected tumors
# Type: in vivo
# Details: after i.v. 16 mg/kg Example 60
# Description: C-2.3 Pharmacokinetics in the HT29 Tumor Model with Mesothelin-Transfected HT29 Cells and Non-Transfected Cells
# After i.v. administration of 16 mg/kg from Example 60, the plasma and tumor concentrations of Example 60 were measured along with potentially occurring metabolites such as those of Example 119, for example. […] In the animals with non-transfected tumors, the exposure in the plasma in Example 119 was identical to the exposure in the plasma of animals with transfected tumors. […] This is indicative of a definite targeting effect in the tumor in the presence of the antigen.
# Analysis for Quantitation of the Compound from Example 119 […]
# In workup of a tumor, it was mixed with a four-fold amount of methanol. […] After agitating again, the tumor sample was ready for measurement.
# Finally, the measurement of both matrix samples was performed on the HPLC coupled atmospheric pressure ionization/tandem mass spectrometer by means of turbo ion spray interface (TISP) on an API4000 instrument from the company SCIEX. The following m/z transitions were measured: […]
# For the calibration, plasma samples with concentrations of 0.5-2000 μg/L were mixed. The limit of quantitation (LOQ) was 2 μg/L. The linear range was from 2 to 1000 μg/L. […]
smiles,measurement,value
"CC[C@H](C)[C@@H]([C@@H](CC(=O)N1CCC[C@H]1[C@H](OC)[C@@H](C)C(=O)N[C@@]1(C(=O)N2CCCCO2)C[C@@H]1c1ccccc1)OC)N(C)C(=O)[C@@H](NC(=O)[C@H](C(C)C)N(C)CCCC(=O)NNC(=O)CCCCCN1C(=O)CC(SC[C@H](N)C(=O)O)C1=O)C(C)C (stereo partly drawn) [Example 119, N-(4-{2-[6-(3-{[(2R)-2-amino-2-carboxyethyl]sulfanyl}-2,5-dioxopyrrolidin-1-yl)hexanoyl]hydrazino}-4-oxobutyl)-N-methyl-L-valyl-N-[(3R,4S,5S)-3-methoxy-1-{(2S)-2-[(1R,2R)-1-methoxy-2-methyl-3-{[(1S,2R)-1-(1,2-oxazinan-2-ylcarbonyl)-2-phenylcyclopropyl]amino}-3-oxopropyl]pyrrolidin-1-yl}-5-methyl-1-oxoheptan-4-yl]-N-methyl-L-valinamide]",AUC in the tumor versus transfected animals,approx. eight times lower
same,exposure in the plasma versus animals with transfected tumors,identical

# — patent US20150246136A1, “NOVEL BINDER-DRUG CONJUGATES (ADCs) AND USE OF SAME” (priority 2011, published 2015)
